Source: patent US10131653B2, “Heterocyclic compound” (TAKEDA PHARMACEUTICAL COMPANY LIMITED, priority 2015, dated 2018)
Where a name gives a salt, the structure may show the parent alone. Read-outs that look alike come from different tables or passages of the source.

What was measured:
[1] = biological target: T1, human OX2 receptor (Homo sapiens, UniProt O43614); experiment: Measurement of orexin receptor antagonistic activity (calcium fluorescence, FLIPRtetra); assay type: cell-based; settings: CHO, read-out: Human Orexin2 receptor inhibition (at 10 μM)
T1 construct: expressed in transfected cells; host or cells: CHO cells
T1 sequence (O43614 1-444): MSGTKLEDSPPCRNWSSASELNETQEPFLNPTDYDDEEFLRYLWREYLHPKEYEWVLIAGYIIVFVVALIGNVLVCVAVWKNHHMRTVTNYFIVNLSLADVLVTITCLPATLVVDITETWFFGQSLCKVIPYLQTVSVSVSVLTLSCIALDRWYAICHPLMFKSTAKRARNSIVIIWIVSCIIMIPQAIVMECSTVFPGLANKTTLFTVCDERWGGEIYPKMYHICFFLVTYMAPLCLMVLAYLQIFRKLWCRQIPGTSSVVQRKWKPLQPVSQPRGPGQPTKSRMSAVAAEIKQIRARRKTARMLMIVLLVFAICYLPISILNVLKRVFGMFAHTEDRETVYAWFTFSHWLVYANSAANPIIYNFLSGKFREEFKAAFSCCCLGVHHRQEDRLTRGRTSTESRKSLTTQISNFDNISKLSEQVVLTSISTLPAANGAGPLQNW
Method: (§1) Measurement of Orexin Receptor Antagonistic Activity
(§2) CHO cells forcibly expressing human OX1 receptor or human OX2 receptor were seeded in each well of 384 well black transparent bottom plate (BD Falcon) at 7,500 cells/well, and cultured for one day in a 5% CO2 incubator at 37° C. […] The plate was stood for 30 min in a 5% CO2 incubator at 37° C., and further stood at room temperature for 30 min. A test compound prepared by diluting with assay buffer B (HBSS, 20 mM HEPES, 0.1% BSA) was added at 10 μL/well, and then OX-A (OX1 receptor, final concentration; 1 nM) or OX-A (OX2 receptor, final concentration; 0.3 nM) was added at 10 μL/well, and the fluorescence value was measured by FLIPRtetra (Molecular Devices) every one sec for 2 min.

[2] = biological target: T2, human OX1 receptor (Homo sapiens, UniProt O43613); experiment: as above; assay type: cell-based; settings: CHO, read-out: Human Orexin1 receptor inhibition (at 10 μM)
T2 construct: expressed in transfected cells; host or cells: CHO cells
T2 sequence (O43613 1-425): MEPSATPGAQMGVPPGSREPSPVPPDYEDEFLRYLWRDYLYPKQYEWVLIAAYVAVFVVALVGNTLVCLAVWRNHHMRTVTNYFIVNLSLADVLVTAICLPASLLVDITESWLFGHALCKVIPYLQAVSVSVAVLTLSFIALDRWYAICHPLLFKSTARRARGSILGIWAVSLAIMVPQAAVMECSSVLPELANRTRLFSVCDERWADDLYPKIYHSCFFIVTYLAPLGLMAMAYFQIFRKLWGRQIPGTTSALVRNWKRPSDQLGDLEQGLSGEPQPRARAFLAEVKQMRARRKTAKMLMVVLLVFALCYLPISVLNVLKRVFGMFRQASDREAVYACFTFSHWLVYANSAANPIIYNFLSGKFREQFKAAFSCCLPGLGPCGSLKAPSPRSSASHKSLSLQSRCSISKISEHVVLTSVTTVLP
Method: as §1, §2

[3] = 10 μM test compound, CHO cells expressing human OX2 receptor, OX-A 0.3 nM
[4] = 10 μM test compound, CHO cells expressing human OX1 receptor, OX-A 1 nM

Compound	inhibition at 10 µM [1]	inhibition at 10 µM [2]	inhibition at 10 µM [1, 3]	inhibition at 10 µM [2, 4]
COc1cccc(C(=O)N2CCON(c3nc(C)cc(C)n3)CC2)c1Cl [Example 60, (2-chloro-3-methoxyphenyl) (2-(4,6-dimethylpyrimidin-2-yl)-1,2,5-oxadiazepan-5-yl)methanone]	3%	-1%	–	–
CCOc1ccccc1C(=O)N1CCON(c2nc(C)cc(C)n2)CC1 [Example 61, (2-(4,6-dimethylpyrimidin-2-yl)-1,2,5-oxadiazepan-5-yl) (2-ethoxyphenyl)methanone]	–	–	94%	22%
Cc1cc(C)nc(N2CCN(C(=O)c3ccccc3C(F)(F)F)CCO2)n1 [Example 62]	–	–	72%	2%
COc1c(C#N)cccc1C(=O)N1CCON(c2nc(C)cc(C)n2)CC1 [Example 63, 3-((2-(4,6-dimethylpyrimidin-2-yl)-1,2,5-oxadiazepan-5-yl)carbonyl)-2-methoxybenzonitrile]	49%	11%	–	–
Cc1cc(C)nc(N2CCN(C(=O)c3cccc4ccccc34)CCO2)n1 [Example 64, (2-(4,6-dimethylpyrimidin-2-yl)-1,2,5-oxadiazepan-5-yl) (1-naphthyl)methanone]	–	–	101%	76%
Cc1cc(C)nc(N2CCN(C(=O)c3cccc4ncccc34)CCO2)n1 [Example 65, (2-(4,6-dimethylpyrimidin-2-yl)-1,2,5-oxadiazepan-5-yl) (quinolin-5-yl)methanone]	84%	9%	–	–
Cc1cc(C)nc(N2CCN(C(=O)c3cccc4cccnc34)CCO2)n1 [Example 66, (2-(4,6-dimethylpyrimidin-2-yl)-1,2,5-oxadiazepan-5-yl) (quinolin-8-yl)methanone]	–	–	90%	13%
Cc1cc(C)nc(N2CCN(C(=O)c3cccc4nccnc34)CCO2)n1 [Example 67, (2-(4,6-dimethylpyrimidin-2-yl)-1,2,5-oxadiazepan-5-yl) (quinoxalin-5-yl)methanone]	44%	5%	–	–
Cc1cc(C)nc(N2CCN(C(=O)c3cccc4ncc(C)nc34)CCO2)n1 [Example 68, (2-(4,6-dimethylpyrimidin-2-yl)-1,2,5-oxadiazepan-5-yl) (3-methylquinoxalin-5-yl)methanone]	87%	28%	–	–
Cc1cc(C)nc(N2CCN(C(=O)c3cccc4nn(C)cc34)CCO2)n1 [Example 69, (2-(4,6-dimethylpyrimidin-2-yl)-1,2,5-oxadiazepan-5-yl) (2-methyl-2H-indazol-4-yl) methanone]	45%	3%	–	–
Cc1cc(C)nc(N2CCN(C(=O)c3cccc4nc(C)oc34)CCO2)n1 [Example 70, (2-(4,6-dimethylpyrimidin-2-yl)-1,2,5-oxadiazepan-5-yl) (2-methyl-1,3-benzoxazol-7-yl)methanone]	17%	-6%	–	–
Cc1cc(C)nc(N2CCN(C(=O)c3cccc4ccn(C)c34)CCO2)n1 [Example 71, (2-(4,6-dimethylpyrimidin-2-yl)-1,2,5-oxadiazepan-5-yl) (1-methyl-1H-indol-7-yl) methanone]	99%	53%	–	–
Cc1cc(C)nc(N2CCN(C(=O)c3cccc4c3ccn4C)CCO2)n1 [Example 72, (2-(4,6-dimethylpyrimidin-2-yl)-1,2,5-oxadiazepan-5-yl) (1-methyl-1H-indol-4-yl) methanone]	–	–	94%	34%
Cc1cc(C)nc(N2CCN(C(=O)c3cccc4nsnc34)CCO2)n1 [Example 73, 2,1,3-benzothiadiazol-4-yl (2-(4,6-dimethylpyrimidin-2-yl)-1,2,5-oxadiazepan-5-yl)methanone]	42%	13%	–	–
Cc1cc(C)nc(N2CCN(C(=O)c3cccc4c3OCC4)CCO2)n1 [Example 74, 2,3-dihydro-1-benzofuran-7-yl (2-(4,6-dimethylpyrimidin-2-yl)-1,2,5-oxadiazepan-5-yl)methanone]	–	–	57%	10%
Cc1cc(C)nc(N2CCN(C(=O)c3cccc4c3OC(C)(C)C4)CCO2)n1 [Example 75, (2,2-dimethyl-2,3-dihydro-1-benzofuran-7-yl) (2-(4,6-dimethylpyrimidin-2-yl)-1,2,5-oxadiazepan-5-yl)methanone]	75%	10%	–	–
Cc1cc(C)nc(N2CCN(C(=O)c3cccc4c3C(=O)N(C)C4)CCO2)n1 [Example 76, 7-((2-(4,6-dimethylpyrimidin-2-yl)-1,2,5-oxadiazepan-5-yl)carbonyl)-2-methylisoindolin-1-one]	22%	6%	–	–
COc1cc2c(cc1C(=O)N1CCON(c3nc(C)cc(C)n3)CC1)CCC2 [Example 77, (2-(4,6-dimethylpyrimidin-2-yl)-1,2,5-oxadiazepan-5-yl) (6-methoxy-2,3-dihydro-1H-inden-5-yl)methanone]	69%	12%	–	–
Cc1cc(C)nc(N2CCN(C(=O)c3cccc(-c4ccccc4)c3)CCO2)n1 [Example 78, biphenyl-3-yl (2-(4,6-dimethylpyrimidin-2-yl)-1,2,5-oxadiazepan-5-yl)methanone]	–	–	52%	27%
Cc1cc(C)nc(N2CCN(C(=O)c3ccccc3-c3ccccc3)CCO2)n1 [Example 79, biphenyl-2-yl (2-(4,6-dimethylpyrimidin-2-yl)-1,2,5-oxadiazepan-5-yl)methanone]	–	–	98%	57%
Cc1cc(C)nc(N2CCN(C(=O)c3ccccc3-n3cccc3)CCO2)n1 [Example 80, (2-(4,6-dimethylpyrimidin-2-yl)-1,2,5-oxadiazepan-5-yl) (2-(1H-pyrrol-1-yl)phenyl)methanone]	94%	14%	–	–
Cc1cc(C)nc(N2CCN(C(=O)c3ccccc3-c3ccco3)CCO2)n1 [Example 81, (2-(4,6-dimethylpyrimidin-2-yl)-1,2,5-oxadiazepan-5-yl) (2-(2-furyl)phenyl)methanone]	–	–	99%	85%
Cc1cc(C)nc(N2CCN(C(=O)c3ccccc3-c3ncc[nH]3)CCO2)n1 [Example 82, (2-(4,6-dimethylpyrimidin-2-yl)-1,2,5-oxadiazepan-5-yl) (2-(1H-imidazol-2-yl)phenyl)methanone]	–	–	83%	18%
Cc1cc(C)nc(N2CCN(C(=O)c3cc(C#N)ccc3C)CCO2)n1 [Example 83, 3-((2-(4,6-dimethylpyrimidin-2-yl)-1,2,5-oxadiazepan-5-yl)carbonyl)-4-methylbenzonitrile]	24%	7%	–	–
Cc1cc(N2CCN(C(=O)c3ccccc3-c3nccs3)C[C@H](C)O2)nc(C)n1 [Example 84, ((7S)-2-(2,6-dimethylpyrimidin-4-yl)-7-methyl-1,2,5-oxadiazepan-5-yl)(2-(1,3-thiazol-2-yl)phenyl)methanone]	–	–	98%	100%
Cc1nc(N2CCN(C(=O)c3ccccc3-c3nccs3)C[C@H](C)O2)cc(C(F)(F)F)n1 [Example 85, ((7S)-7-methyl-2-(2-methyl-6-(trifluoromethyl)pyrimidin-4-yl)-1,2,5-oxadiazepan-5-yl)(2-(1,3-thiazol-2-yl)phenyl)methanone]	–	–	102%	98%
Cc1cc(N2CCN(C(=O)c3cc(F)ccc3-c3nccs3)C[C@H](C)O2)nc(C)n1 [Example 87, ((7S)-2-(2,6-dimethylpyrimidin-4-yl)-7-methyl-1,2,5-oxadiazepan-5-yl)(5-fluoro-2-(1,3-thiazol-2-yl)phenyl)methanone hydrochloride]	–	–	102%	81%
